Assays:
[1] = target: T1, preformed α-Syn fibrils (Homo sapiens, UniProt P37840); experiment: LDH cytotoxicity assay of preformed α-Syn fibrils incubated with curcumin analogs; format: cell-based; conditions: fibrils incubated with analog 48 h; SH-SY5Y cells
T1 construct: made in house; host or cells: Escherichia coli BL21
Protocol: The concentration of the fibrils was determined by subtraction of supernatant concentration from the original concentration of α-Syn kept for fibrillation.
The percent LDH release was plotted as difference in the absorbance value of 490 nm and 690 nm, considering 100% release for the TritonX-100 treated cells.

[2] = Stability of curcumin analogs by time-dependent intrinsic fluorescence; format: physicochemical; conditions: 20 mM MES buffer pH 6.0, 0.01% NaN3, 37 °C
Protocol: 1μl of this DMSO-stock solution was transferred to 2 ml microfuge tube and 1 ml of 20 mM MES buffer (pH 6.0, 0.01% NaN3) was added to it and mixed immediately by vortexing. These solutions were incubated at 37 °C and their respective fluorescence was taken at certain time intervals. The fluorescence was monitored by placing the 200 μl of the incubated solution in 0.1 cm path-length quartz cuvette (Hellma, Forest Hills, NY) and the spectra were acquired by using FluoroMax-4 spectrofluorometer (HORIBA JobinYvon) instrument with excitation and emission slit widths of 5 nm and 10 nm respectively. The fluorescence intensity maxima for each sample were plotted against time of incubation and fitted in exponential decay 1 in the Origin 8.0 software according to manufacture’s protocol (Fig. 2A).

[3] = target: T2, α-Syn (Homo sapiens, UniProt P37840); experiment: TEM of α-Syn aggregates formed in presence of analogs; format: biochemical
T2 construct: made in house; host or cells: Escherichia coli BL21
Protocol: (§1) Subsequently, we examined the effect of these analogs on α-Syn oligomerization by time dependent static light scattering experiment. […] After aggregation, TEM study was done to determine the effects of these analogs on the morphology of the resultant aggregates.
(§2) The samples were then washed thrice with autoclaved MQ. The samples were then stained with 10 μl of uranyl formate 1% (w/v) and incubated in dark for 10 min. The EM image of each sample was acquired at 120 kV with magnifications in the range of 26,000X and 43,000X using a transmission electron microscope (TECNAI12 D312 FEI, Netherlands).

[4] = target: T3, α-Syn oligomers (Homo sapiens, UniProt P37840); experiment: Binding affinity to α-Syn oligomers by curcumin analog fluorescence; conditions: for affinity to oligomers compared to fibrils: comparison of Kd for fibrils and oligomers; for Kd: compound fluorescence, read-out: dissociation constant (Kd) for α-Syn oligomers
T3 construct: made in house; host or cells: Escherichia coli BL21
Protocol: Immediately after incubation, fluorescence study was performed (for the excitation and emission ranges for each compounds, see Fig. S1). Experiments were performed using FluoroMax-4 spectrofluorometer (HORIBA JobinYvon) with excitation and emission slit widths of 5 nm.
The data were analyzed in Graphpad Prism software according to established method as used previously.

[5] = target: T4, preformed α-Syn amyloid fibrils (Homo sapiens, UniProt P37840); experiment: TEM of preformed α-Syn fibrils with analogs; format: biochemical; conditions: after 48 h incubation with analog
T4 construct: made in house; host or cells: Escherichia coli BL21
Protocol: as §2

[6] = target: T5, α-Syn fibrils (Homo sapiens, UniProt P37840); experiment: Binding affinity to α-Syn fibrils by curcumin analog fluorescence; conditions: for binding with preformed α-Syn fibrils: compound fluorescence
T5 construct: made in house; host or cells: Escherichia coli BL21
Protocol: To estimate the comparative binding affinity of curcumin analogs to the α-Syn fibrils and oligomers, curcumin fluorescence assay was performed for each analog. For binding study with fibrils, 10 μM of α-Syn fibrils were incubated in presence of varying concentration of curcumin and its analogs (0.25 μM to 30 μM) for 30 min at RT in dark and then fluorescence spectra were recorded. The normalized fluorescence intensity of different concentrations of curcumin/analogs at their corresponding λmax was plotted to obtain their respective saturation plots (Figs 6A and S7). From the saturation plot, dissociation constant (Kd) was calculated (see method section).
The binding of curcumin/analogs to α-Syn fibrils were determined based on change in fluorescence intensity. For this study, 10 μM α-Syn fibrils were incubated in presence and absence of varying concentration of curcumin/analogs (0.25 μM to 30 μM) for 30 min at RT in dark. Immediately after incubation, fluorescence study was performed (for the excitation and emission ranges for each compounds, see Fig. S1). Experiments were performed using FluoroMax-4 spectrofluorometer (HORIBA JobinYvon) with excitation and emission slit widths of 5 nm. The maximum fluorescence intensity for curcumin/analogs was normalized with respect to that of the lowest concentration of each analog. The normalized fluorescence intensity was plotted against increasing concentration of curcumin/analogs and the dissociation constant was determined using the equation
where, “ΔF” is the change in the fluorescence intensity of curcumin/analogs, “ΔFmax” is the change in the fluorescence intensity at saturation point and “L”is the concentration of curcumin/analogs. The data were analyzed in Graphpad Prism software according to established method as used previously. Similarly, the dissociation constant of curcumin and its analogs with preformed α-Syn oligomers and monomers (obtained from SEC) were also determined.

[7] = target: T2, α-Syn; experiment: α-Syn aggregation kinetics by compound fluorescence; format: biochemical; conditions: in presence of analog
Protocol: ThT fluorescence was used to monitor the aggregation kinetics of α-Syn only as a control.
as §1
The α-Syn amyloid aggregation was started with LMW α-Syn of concentration ~300 μM in 1.5 ml microfuge tube in 20 mM MES buffer, pH 6.0, with 0.01% NaN3. […] The microfuge tubes with protein solutions were placed into Echo-Therm model RT11 vertical rotor (Torrey Pines Scientific, USA) with a speed of 50 rpm, at 37 °C inside an incubator.
The experiments were performed in FluoroMax-4 spectrofluorometer (HORIBA JobinYvon) with excitation and emission slit widths of 5 nm. Fluorescence was done in 20 mM MES buffer (pH 6.0, 0.01% NaN3).

[8] = target: T1, preformed α-Syn fibrils; experiment: Nile red binding assay on preformed α-Syn fibrils; format: biochemical; conditions: fibrils incubated with analog 48 h
Protocol: Stock solution of NR was prepared in DMSO (1 mM). […] Similar experimental protocol was used for NR binding to oligomers. FluoroMax-4 spectrofluorometer (HORIBA JobinYvon) was used with excitation and emission slit widths of 5 nm. The maximum NR fluorescence obtained at ~630 nm was used for plotting bar diagrams.

Row | relative stability compared with curcumin (slope of normalized fluorescence versus time) [2] | morphology of α-Syn aggregates formed in presence of analog (TEM) [3] | fibril morphology/thickness of preformed α-Syn fibrils (TEM, words) [5] | effect on rate/kinetics of α-Syn aggregation [7] | Kd [4] | Structure (SMILES) | effect on cell death by preformed α-Syn fibrils, LDH [1] | affinity to oligomers compared to fibrils [4] | average fibril thickness of fibrils formed in presence of analog [3] | Kd ([6]; 10 μM fibrils, 0.25–30 μM analog, 30 min RT, read-out: dissociation constant (Kd) for α-Syn fibrils) | binding with preformed α-Syn fibrils [6] | Nile red fluorescence of preformed α-Syn fibrils (exposed hydrophobic surface) [8]
1 | relatively more stable than curcumin | fibrils with shorter length | – | – | – | COc1ccc(/C=C/C(=O)CC(=O)/C=C/c2ccc(OC)cc2)cc1 [C10] | decrease in cell death | higher binding affinity to oligomers as compared to fibrils | – | – | – | –
2 | relatively more stable than curcumin | – | thinner fibrils | less significant effect | 1.46 ± 0.2 µM | O=C(/C=C/c1cccs1)CC(=O)/C=C/c1cccs1 [C8] | decrease in cell death | higher binding affinity to oligomers as compared to fibrils | – | – | – | –
3 | relatively more stable than curcumin | fibrils with shorter length | – | increases the rate of α-Syn aggregation | – | COc1ccc(OC)c(/C=C/C(=O)CC(=O)/C=C/c2cc(OC)ccc2OC)c1 [C5] | decrease in cell death | – | – | – | – | less NR fluorescence for fibrils as compared to curcumin
4 | relatively more stable than curcumin | fibrils with shorter length | thinner fibrils | less significant effect | – | O=C(/C=C/c1cccnc1)CC(=O)/C=C/c1cccnc1 [C9] | – | – | – | – | did not show any significant binding | –
5 | – | – | – | – | 16.5 ± 2.63 µM | COc1ccc(/C=C/C(=O)CC(=O)/C=C/c2ccc(OC)cc2OC)c(OC)c1 [C4] | – | – | – | – | – | –

Row | Structure (SMILES) | relative stability compared with curcumin (slope of normalized fluorescence versus time) [2] | morphology of α-Syn aggregates formed in presence of analog (TEM) [3] | fibril morphology/thickness of preformed α-Syn fibrils (TEM, words) [5] | effect on rate/kinetics of α-Syn aggregation [7] | Kd [4] | effect on cell death by preformed α-Syn fibrils, LDH [1] | affinity to oligomers compared to fibrils [4] | average fibril thickness of fibrils formed in presence of analog [3] | Kd ([6]; 10 μM fibrils, 0.25–30 μM analog, 30 min RT, read-out: dissociation constant (Kd) for α-Syn fibrils) | binding with preformed α-Syn fibrils [6] | Nile red fluorescence of preformed α-Syn fibrils (exposed hydrophobic surface) [8]
6 | O=C(/C=C/c1ccccc1)CC(=O)/C=C/c1ccccc1 [C7] | relatively more stable than curcumin | fibrils with shorter length | thinner fibrils | – | – | decrease in cell death | – | more in comparison to fibrils formed in presence of other analogs | 13.2 ± 2.29 µM | very weak binding | –

Reference: publication PMC4919791, “Effect of curcumin analogs onα-synuclein aggregation and cytotoxicity” (Scientific Reports, 2016)
